Results as given in patent US11560358B2, “Resveratrol-piperazine co-crystals” (LETAVIS AB, priority 2018, dated 2023).
Values after ≈ are worked out from the molar mass of the structure shown.

Assay: physchem
Procedure: In situ dissolution experiments were performed with a μDISS Profiler apparatus (pION Inc., MA, USA). The system consists of an integrated diode array spectrophotometer connected to a fiber optic UV probe located directly in the reaction vessel (20 ml scintillation vial) and measures the concentration as a function of time, without filtering the solution. Measurement of the dissolution kinetics was carried out at 220 nm and 270 nm, which are optimal for the UV detection of resveratrol and […], respectively. The concentrations of the compounds in the dissolution media (water, buffer pH=4, pH=6) were calculated by means of a standard curve.
The calibration curve was obtained in a mixture of ethanol and water at 8/2 (vol/vol). Stock solutions of resveratrol and resveratrol-piperazine co-crystal, Form 1, respectively, were prepared at 10 mg/ml. The calibration was performed in a 20 ml volume.
The dissolution was performed in 25 mM phosphate buffer (Na2HPO4/KH2PO4) at pH 6, at a concentration of 1 mg/ml resveratrol and resveratrol-piperazine co-crystal, Form 1, respectively. An amount of 20 mg of each compound was dispensed in 20 ml volume of buffer. The process was monitored for 90 minutes.
The calibration was performed in a mixture of ethanol and sodium acetate buffer pH 4.0 at 8/2 (vol/vol) and final concentration of 25 mM sodium acetate. Stock solutions of resveratrol and resveratrol-piperazine co-crystal, Form 1, respectively, were prepared at 10 mg/ml in the solvent mixture. The calibration was performed in 20 ml volume.
The dissolution was performed in 25 mM sodium acetate buffer at pH 4.0, at a concentration of 1 mg/ml resveratrol and resveratrol-piperazine co-crystal, Form 1 (RP1), respectively. An amount of 20 mg compound was dispensed in 20 ml volume of buffer. The process was monitored for 90 minutes.

| aqueous solubility | solubility compared to that of resveratrol (pH 4) | solubility at 90 min (aqueous buffer, thermodynamic from solid) [µg/mL] | Compound | time maintained in solution, pH 4 buffer versus pH 6 buffer (FIG. 14 and FIG. 13) |
| --- | --- | --- | --- | --- |
| 65-100 micrograms/ml | three times higher |  | C1CNCCN1.Oc1ccc(C=Cc2cc(O)cc(O)c2)cc1 [resveratrol-piperazine co-crystal, Form 1] | longer than in the case of the pH 6 buffer |
|  |  | 30 (≈ 131 µM) | Oc1ccc(C=Cc2cc(O)cc(O)c2)cc1 [resveratrol] |  |
